Source: paper PMC6273595, “Study of the Activity and Possible Mechanism of Action of a Reversible Inhibitor of Recombinant Human KAT-2: A Promising Lead in Neurodegenerative and Cognitive Disorders” (Molecules, 2016)
Like-named read-outs stand apart in the source and are kept apart here.

Assays:
[1] = molecular target: T1, KAT-2 (kynurenine aminotransferase-2) (Homo sapiens, UniProt Q8N5Z0); experiment: HPLC assay of KYN to KYNA conversion by recombinant human KAT-2, % inhibition at […]; assay type: biochemical
T1 construct: gene AADAT; recombinant KAT-2
T1 sequence (Q8N5Z0 30-425): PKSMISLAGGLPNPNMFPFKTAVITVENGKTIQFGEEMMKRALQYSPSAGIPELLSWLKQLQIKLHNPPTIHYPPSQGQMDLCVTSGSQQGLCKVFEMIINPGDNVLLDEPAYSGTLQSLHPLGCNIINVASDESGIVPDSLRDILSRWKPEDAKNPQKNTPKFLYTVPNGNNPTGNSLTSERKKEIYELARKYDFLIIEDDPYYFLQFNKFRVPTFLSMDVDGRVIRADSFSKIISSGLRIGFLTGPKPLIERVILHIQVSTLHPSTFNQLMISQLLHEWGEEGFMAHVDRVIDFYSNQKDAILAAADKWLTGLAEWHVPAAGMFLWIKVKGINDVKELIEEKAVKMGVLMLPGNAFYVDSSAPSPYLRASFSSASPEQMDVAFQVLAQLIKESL

[2] = molecular target: T1, KAT-2 (kynurenine aminotransferase-2); experiment: HPLC assay of KYN to KYNA conversion by recombinant human KAT-2; assay type: biochemical

CCS(=O)(=O)c1ccc(C(=O)C[C@H](N)C(=O)O)cc1 [(S)-ESBA, (S)-4-(Ethylsulfonyl)benzoylalanine]
inhibition at 200 µM [1]: 20%

C[C@H]1COc2c(N3CCN(N)CC3)c(F)cc3c(=O)c(C(=O)O)cn1c23 [BFF-122]
IC50 ([2]; read-out: IC50): 15 to 20 µM

N[C@H]1Cc2ccccc2N(O)C1=O [PF-04859989]
IC50 [2]: 1 to 3 µM
